Values of other authors as cited in article PMC2923042 (Journal of chemical information and modeling, 2008).

System: catL
Details: extrapolated from 63% inhibition at 10^-7 M; ref Tsuge et al.[15]

IC50: < 100 nM
Structure (SMILES): CN(C)C(=O)[C@H](Cc1ccccc1)NC(=O)[C@H]1O[C@@H]1C(=O)NCCc1ccccn1 [CLIK-148]
